According to patent US11370757B2, “Photocleavable nitroindoline-based crosslinkers” (priority 2017, dated 2022):
*1 amine or outer side, *2 acyl side, *3 side chain or, on linkers, in order; H or OH if unused. Where a SMILES comes first, the peptide text is derived from it. [ ]: non-standard residue; d: D form. X1 = O=C(c1cc2c(c([N+](=O)[O-])c1)N([*:1])CC2)[*:2]; Hyp = O=C(O)[C@@H]1C[C@@H](O)CN1

What was measured:
[1] = Two-photon photolysis followed by fluorescence decay under a femtosecond laser at 710 nm; type: physicochemical; settings: 710 nm femtosecond laser, 100 to 200 mW; film/gel on microscope slide; slope 2 = two-photon process
Description: Two-photon microscope. The details of the in-housed developed two-photon microscope was previously described (Acosta et al., (2014) Biomed. Opt. Express 5, 3990-4001). In summary the light source is a mode-locked Ti:Sapphire laser (Maitai H P, 690-1040 nm, 100 fs, 80 MHz, Newport, Santa Clara, Calif.). The inventors have used 710 nm light to achieve two-photon excitation of N-acyl-nitroindoline. The home-built x-y scanner (polygon, galvanometer) can achieve 30 frames/s scanning rate. The laser power at the sample site is varied by rotating a half-wave plate in front of a polarizer. The fluorescence signal from the sample are detected in three spectral channels with photomultiplier tubes (PMTs): red (570-616 nm), green (500-550 nm), and blue (417-477 nm). […]
Several spots within the sample were irradiated under the two-photon microscope using 710 nm light with varying excitation laser output powers ranging from 100 to 200 mW with increments of 25 mW. […] Therefore, as the photolysis reaction progresses, the fluorescent peptide 1 is consumed, and consequentially a decrease in average fluorescence intensity at the irradiation site is observed. For each irradiated spot, a time series of fluorescence images was recorded at every minute to track the fluorescence intensity decay throughout the photo induced reaction process (FIG. 4a-4d). […]

[2] = system: human mesenchymal stem cells; type: cell-based
Description: Culture and passaging of human Mesenchymal Stem Cells (MSC). Human adipose derived mesenchymal stem cells were obtained from Lonza at passage=3 (Lonza, Allendale, N.J., USA) and cultured according to manufacturer's recommendations. Certification was obtained and kept in file to ensure that the purchased human MSC (Lonza) was verified to be of the correct lineage and uncontaminated by other cell types or organisms. For the human MSC culture, a complete growth medium (Lonza) specifically MSCGM human Mesenchymal Stem Cell (HMSC) growth BulletKit™ Medium (Lonza) was used for maintaining the mesenchymal stem cells in an undifferentiated state. This medium is referred to as complete growth medium for HMSC here onwards. Prior to cell seeding, T-75 culture flasks were coated with 0.1% gelatin (Sigma Aldrich, St. Louis, Mo., USA) and incubated (37° C., 1 h). After this, the cell suspension in complete culture medium was transferred to a gelatin coated T-75 flask and incubated for 1 h (37° C., 5% CO2 and 95% RH). Prior to cell culture, the gelatin solution used for coating of the flasks was aspirated. After 70% confluency in culture was attained, cells were trypsizined and passaged for further experiments. […] Following this, cells were seeded atop this layer and cultured for 24 hours after which they were imaged using fluorescence microscopy (Zeiss Axiovision).

[3] = type: physicochemical
Method: Circular Dichroism (CD) of peptide 1 and thermal stability measurements. Far-UV CD studies were conducted to study the secondary structure of peptide 1. The measurements were carried out using a 20 μM solution of the lyophilized peptide 1 in 15 mM NaCl and 10 mM Na/K buffer (pH 6.8). The sample was placed into a quartz cuvette of 1 mm path length (Jasco) and heated from 20° C.-70° C. to characterize its thermal stability. At each temperature, the sample was equilibrated for 4 min prior measurement of the spectrum. CD scans were performed at a range from 196-240 nm with three accumulations of data at each temperature to improve the S/N ratio. Each spectrum underwent 11 point Savitzky-Golay smoothing to minimize high frequency noise. The experimentally estimated ellipticities (Gobs) were converted to mean molar ellipticity [θ] using the formula: [θ]=(θobs)/ncl where l is the path length of the cuvette; c is the concentration of the peptide, and n is the number of […] in the peptide.

Row | SMILES | slope of the regression line in the double-log plot of reaction rate vs. laser intensity [1] | cytotoxicity to cultured mesenchymal stem cells [2] | stability of the structure at physiological temperature [3]
1 | O=C(NCC(=O)N1CCc2cc(Br)cc([N+](=O)[O-])c21)OCC1c2ccccc2-c2ccccc21 [compound 13, N-Fmoc-glycyl-5-bromo-7-nitroindoline] | 1.996 |  | 
2 | NC(=O)CNC(=O)[C@@H]1CCCN1C(=O)[C@@H]1C[C@@H](O)CN1C(=O)CNC(=O)[C@@H]1CCCN1C(=O)[C@@H]1CCCN1C(=O)c1cc2c(c([N+](=O)[O-])c1)N(C(=O)CNC(=O)[C@@H]1CCCN1C(=O)[C@@H]1C[C@@H](O)CN1C(=O)CNC(=O)[C@@H]1CCCN1C(=O)[C@@H]1CCCN1C(=O)c1cc3c(c([N+](=O)[O-])c1)N(C(=O)CNC(=O)[C@@H]1CCCN1C(=O)[C@@H]1C[C@@H](O)CN1C(=O)CNC(=O)[C@@H]1CCCN1C(=O)[C@@H]1CCCN1C(=O)c1cc4c(c([N+](=O)[O-])c1)N(C(=O)CNC(=O)[C@@H]1CCCN1C(=O)[C@@H]1C[C@@H](O)CN1C(=O)CNC(=O)[C@@H]1CCCN1C(=O)[C@@H]1CCCN1C(=O)c1cc5c(c([N+](=O)[O-])c1)N(C(=O)CNC(=O)[C@@H]1CCCN1C(=O)[C@@H]1C[C@@H](O)CN1C(=O)CNC(=O)[C@@H]1CCCN1C(=O)[C@@H]1CCCN1)CC5)CC4)CC3)CC2 [peptide 1] (H-PPG[Hyp]PG[X1]PPG[Hyp]PG[X1]PPG[Hyp]PG[X1]PPG[Hyp]PG[X1]PPG[Hyp]PG-NH2) |  | not cytotoxic | very stable
